Source: patent US20240109972A1, “ANTIBODY AND TAXANE COMBINATION THERAPY” (Genmab A/S, priority 2020, published 2024)

System: solid malignant tumors
Test: GEN1046 Phase I dose escalation (NCT03917381), response by RECIST v1.1
Assay type: in vivo, human
Conditions: for BOR Stable Disease, (percent) / BOR Stable Disease, patients / BOR Complete Response, (percent) / BOR Complete Response, patients / BOR Progressive Disease, (percent) / BOR Progressive Disease, patients / BOR Partial Response, (percent) / BOR Partial Response, patients: 3 Feb. 2020
Source text: The resistance to, failure to respond to and/or relapse from treatment with a binding agent of the invention and/or other therapeutic agent(s) may be determined according to the Response Evaluation Criteria In Solid Tumors; version 1.1 (RECIST Criteria v1.1).
The “best overall response” is the best response recorded from the start of the treatment until disease progression/recurrence (the smallest measurements recorded since the treatment started will be used as the reference for PD). Subjects with CR or PR are considered to be objective response. Subjects with CR, PR or SD are considered to be in disease control. Subjects with NE are counted as non-responders. […]
Clinical trial on GCT1046-01 (ClinicalTrials.gov Identifier: NCT03917381) was designed as a two-part trial, including an ongoing dose escalation part and a planned expansion part.
The trial consists of 2 parts; a First-in-Human (FIH) dose escalation (Phase I) and an expansion (Phase 11a).
For dose escalation, subject was required to be a man or […] and was required to have measurable disease according to RECIST 1.1.

[1] = six patients with NSCLC, prior checkpoint immunotherapy

## GEN1046: PD-L1×4-1BB bispecific antibody: PD-L1-547-FEAL combined with CD137-009-HC7LC2-FEAR (SEQ ID NOs: 1, 5, 21, 19; 8, 12, 22, 20)
140 mg (n = 1)
  BOR Stable Disease, (percent): (0)
  BOR Stable Disease, patients: 0
200 mg (N 9), Oct. 12, 2020
  CR (Complete Response), patients: 0
  Confirmed CR (Complete Response), patients: 0
  Confirmed Disease Control (PR + PR + SD) Rate, %: 66.7%
  Confirmed Disease Control (PR + PR + SD) Rate, patients: 6
  Confirmed NE (Not Evaluable), % of patients: 11.1%
  Confirmed NE (Not Evaluable), patients: 1
  Confirmed Objective Response (CR + PR) Rate, patients: 0
  Confirmed PD (Progressive Disease), % of patients: 22.2%
  Confirmed PD (Progressive Disease), patients: 2
  Confirmed PR (Partial Response), patients: 0
  Confirmed SD (Stable Disease), % of patients: 66.7%
  Confirmed SD (Stable Disease), patients: 6
  Disease Control (PR + PR + SD) Rate, %: 66.7%
  Disease Control (PR + PR + SD) Rate, patients: 6
  NE (Not Evaluable), % of patients: 11.1%
  NE (Not Evaluable), patients: 1
  Objective Response (CR + PR) Rate, %: 11.1%
  Objective Response (CR + PR) Rate, patients: 1
  PD (Progressive Disease), % of patients: 22.2%
  PD (Progressive Disease), patients: 2
  PR (Partial Response), % of patients: 11.1%
  PR (Partial Response), patients: 1
200 mg (n = 8)
  BOR Complete Response, (percent): (0)
  BOR Complete Response, patients: 0
  BOR Progressive Disease, (percent): (25)
  BOR Progressive Disease, patients: 2
  BOR Stable Disease, (percent): (62.5)
  BOR Stable Disease, patients: 5
200 mg (n = 8), uPR
  BOR Partial Response, (percent): (12.5)
  BOR Partial Response, patients: 1^1
400 mg (N 9), Oct. 12, 2020
  CR (Complete Response), patients: 0
  Confirmed CR (Complete Response), patients: 0
  Confirmed Disease Control (PR + PR + SD) Rate, %: 77.8%
  Confirmed Disease Control (PR + PR + SD) Rate, patients: 7
  Confirmed NE (Not Evaluable), patients: 0
  Confirmed Objective Response (CR + PR) Rate, patients: 0
  Confirmed PD (Progressive Disease), % of patients: 22.2%
  Confirmed PD (Progressive Disease), patients: 2
  Confirmed PR (Partial Response), patients: 0
  Confirmed SD (Stable Disease), % of patients: 77.8%
  Confirmed SD (Stable Disease), patients: 7
  Disease Control (PR + PR + SD) Rate, %: 77.8%
  Disease Control (PR + PR + SD) Rate, patients: 7
  NE (Not Evaluable), patients: 0
  Objective Response (CR + PR) Rate, patients: 0
  PD (Progressive Disease), % of patients: 22.2%
  PD (Progressive Disease), patients: 2
  PR (Partial Response), patients: 0
400 mg (n = 6)
  BOR Complete Response, (percent): (0)
  BOR Complete Response, patients: 0
  BOR Partial Response, (percent): (0)
  BOR Partial Response, patients: 0
  BOR Progressive Disease, (percent): (0)
  BOR Progressive Disease, patients: 0
  BOR Stable Disease, (percent): (100)
  BOR Stable Disease, patients: 6
800 mg (N 9), Oct. 12, 2020
  CR (Complete Response), patients: 0
  Confirmed CR (Complete Response), patients: 0
  Confirmed Disease Control (PR + PR + SD) Rate, %: 55.6%
  Confirmed Disease Control (PR + PR + SD) Rate, patients: 5
  Confirmed NE (Not Evaluable), % of patients: 22.2%
  Confirmed NE (Not Evaluable), patients: 2
  Confirmed Objective Response (CR + PR) Rate, patients: 0
  Confirmed PD (Progressive Disease), % of patients: 22.2%
  Confirmed PD (Progressive Disease), patients: 2
  Confirmed PR (Partial Response), patients: 0
  Confirmed SD (Stable Disease), % of patients: 55.6%
  Confirmed SD (Stable Disease), patients: 5
  Disease Control (PR + PR + SD) Rate, %: 55.6%
  Disease Control (PR + PR + SD) Rate, patients: 5
  NE (Not Evaluable), % of patients: 22.2%
  NE (Not Evaluable), patients: 2
  Objective Response (CR + PR) Rate, patients: 0
  PD (Progressive Disease), % of patients: 22.2%
  PD (Progressive Disease), patients: 2
  PR (Partial Response), patients: 0
1200 mg (N 4), Oct. 12, 2020
  CR (Complete Response), patients: 0
  Confirmed CR (Complete Response), patients: 0
  Confirmed Disease Control (PR + PR + SD) Rate, %: 75.0%
  Confirmed Disease Control (PR + PR + SD) Rate, patients: 3
  Confirmed NE (Not Evaluable), patients: 0
  Confirmed Objective Response (CR + PR) Rate, patients: 0
  Confirmed PD (Progressive Disease), % of patients: 25.0%
  Confirmed PD (Progressive Disease), patients: 1
  Confirmed PR (Partial Response), patients: 0
  Confirmed SD (Stable Disease), % of patients: 75.0%
  Confirmed SD (Stable Disease), patients: 3
  Disease Control (PR + PR + SD) Rate, %: 75.0%
  Disease Control (PR + PR + SD) Rate, patients: 3
  NE (Not Evaluable), patients: 0
  Objective Response (CR + PR) Rate, patients: 0
  PD (Progressive Disease), % of patients: 25.0%
  PD (Progressive Disease), patients: 1
  PR (Partial Response), patients: 0
ICI pre-treated NSCLC
  Partial responses, patients: 2
Total (N 61), Oct. 12, 2020
  CR (Complete Response), patients: 0
  Confirmed CR (Complete Response), patients: 0
  Confirmed Disease Control (PR + PR + SD) Rate, %: (65.6%)
  Confirmed Disease Control (PR + PR + SD) Rate, patients: 40
  Confirmed NE (Not Evaluable), % of patients: (11.5%)
  Confirmed NE (Not Evaluable), patients: 7
  Confirmed Objective Response (CR + PR) Rate, %: (3.3%)
  Confirmed Objective Response (CR + PR) Rate, patients: 2
  Confirmed PD (Progressive Disease), % of patients: (23.0%)
  Confirmed PD (Progressive Disease), patients: 14
  Confirmed PR (Partial Response), % of patients: (3.3%)
  Confirmed PR (Partial Response), patients: 2
  Confirmed SD (Stable Disease), % of patients: (62.3%)
  Confirmed SD (Stable Disease), patients: 38
  Disease Control (PR + PR + SD) Rate, patients: 40
  NE (Not Evaluable), % of patients: (11.5%)
  NE (Not Evaluable), patients: 7
  Objective Response (CR + PR) Rate, %: (6.6%)
  Objective Response (CR + PR) Rate, patients: 4
  PD (Progressive Disease), % of patients: (23.0%)
  PD (Progressive Disease), patients: 14
  PR (Partial Response), % of patients: (6.6%)
Total (n = 30)
  BOR Complete Response, (percent): (0)
  BOR Complete Response, patients: 0
  BOR Partial Response, (percent): (10)
  BOR Partial Response, patients: 3
  BOR Progressive Disease, (percent): (26.6)
  BOR Progressive Disease, patients: 8
  BOR Stable Disease, (percent): (63.3)
  BOR Stable Disease, patients: 19
Ovarian cancer
  Partial responses, patients: 1
[1]
  Patients who maintained stable disease: two
  Patients with progressive disease: two
  Patients with unconfirmed PR: two
Triple negative breast cancer
  Partial responses, patients: 1
